Experimental data published in ChEMBL document CHEMBL5096227, “Discovery of Ervogastat (PF-06865571): A Potent and Selective Inhibitor of Diacylglycerol Acyltransferase 2 for the Treatment of Non-alcoholic Steatohepatitis” (J Med Chem, 2022).
pIC50: −log10 of the molar value.

Experiments:
[1] = Drug metabolism in rat hepatocytes assessed as O-deethylation mediated pyridin-3-ol mediated metabolite formation; format: ADME, cell-based, Hepatocyte
[2] = Apparent permeability in MDCK-II cells; format: ADME, cell-based, Canis lupus familiaris; details: dog, MDCK; read-out: Papp
[3] = Oral bioavailability in Wistar Han rat at 5 mg/kg; format: ADME, organism-based; details: in vivo
[4] = Half life in Wistar Han rat at 5 mg/kg, po; format: ADME, organism-based; details: in vivo
[5] = Plasma protein binding in rat assessed as unbound fraction ratio at 2 uM; format: ADME, cell-free
[6] = Volume of distribution at steady state in Wistar Han rat at 1 mg/kg, iv; format: ADME, organism-based; details: in vivo, read-out: Vdss
[7] = Half life in cynomolgus monkey at 1 mg/kg, iv; format: ADME, organism-based, Macaca fascicularis; details: in vivo
Cytochrome P450 2B6 = biological target: T1, Cytochrome P450 2B6 (Homo sapiens, UniProt P20813); experiment: Reversible inhibition of CYP2B6 in pooled human liver microsomes; format: ADME, Microsome
T1 sequence (P20813 whole entry): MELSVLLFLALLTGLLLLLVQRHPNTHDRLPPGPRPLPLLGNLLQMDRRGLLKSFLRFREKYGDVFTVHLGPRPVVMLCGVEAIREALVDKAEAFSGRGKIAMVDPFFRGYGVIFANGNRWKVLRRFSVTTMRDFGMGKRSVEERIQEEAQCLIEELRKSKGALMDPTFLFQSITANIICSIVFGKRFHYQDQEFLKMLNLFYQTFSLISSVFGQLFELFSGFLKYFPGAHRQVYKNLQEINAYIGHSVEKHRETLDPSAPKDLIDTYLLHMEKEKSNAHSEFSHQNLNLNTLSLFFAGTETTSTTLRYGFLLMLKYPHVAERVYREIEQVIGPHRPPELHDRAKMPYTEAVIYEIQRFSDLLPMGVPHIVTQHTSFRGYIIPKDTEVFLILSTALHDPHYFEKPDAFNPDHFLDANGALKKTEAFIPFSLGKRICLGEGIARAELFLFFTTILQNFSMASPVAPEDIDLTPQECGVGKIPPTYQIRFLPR

[8] = Drug metabolism in cryopreserved human hepatocytes assessed as O-deethylation mediated pyridin-3-ol metabolite formation at 10 uM measured for 240 mins by HPLC-UV-MS analysis; format: ADME, cell-based, Hepatocyte; details: 4 h
[9] = Drug metabolism in monkey hepatocytes assessed as hydrolytic cleavage of amide bond mediated metabolite formation; format: ADME, cell-based, Macaca mulatta, Hepatocyte; details: rhesus monkey
[10] = In vivo inhibition of DGAT2 in high fat/high cholesterol diet fed Sprague-Dawley rat model assessed as reduction in plasma triglyceride level at 90 mg/kg, po administered twice daily for 7 days starting from day 14 post diet and measured 2 hrs post last dose relative to control; format: functional; design: scale not given: the % may be the effect or the level left; details: time 7 day
Cytochrome P450 2C9 = Cytochrome P450 2C9 (Homo sapiens, UniProt P11712); experiment: Reversible inhibition of CYP2C9 in pooled human liver microsomes using 4-Hydroxydiclofenac as substrate incubated for 10 mins in presence of NADPH by HPLC-MS/MS analysis; format: ADME, Microsome
[11] = Drug metabolism in monkey hepatocytes assessed as O-deethylation mediated pyridin-3-ol mediated metabolite formation; format: ADME, cell-based, Macaca mulatta, Hepatocyte; details: rhesus monkey
[12] = biological target: T2, Diacylglycerol O-acyltransferase 2 (Rattus norvegicus, UniProt Q5FVP8); experiment: Inhibition of rat DGAT2 using [1-14C]decanoyl-CoA and 1,2-didecanoyl-sn-glycerol as substrates assessed as incorporation of [1-14C]decanoyl into triacylglycerol preincubated for 120 mins followed by substrate addition and measured after 40 mins by scintillation counting method
T2 sequence (Q5FVP8 whole entry): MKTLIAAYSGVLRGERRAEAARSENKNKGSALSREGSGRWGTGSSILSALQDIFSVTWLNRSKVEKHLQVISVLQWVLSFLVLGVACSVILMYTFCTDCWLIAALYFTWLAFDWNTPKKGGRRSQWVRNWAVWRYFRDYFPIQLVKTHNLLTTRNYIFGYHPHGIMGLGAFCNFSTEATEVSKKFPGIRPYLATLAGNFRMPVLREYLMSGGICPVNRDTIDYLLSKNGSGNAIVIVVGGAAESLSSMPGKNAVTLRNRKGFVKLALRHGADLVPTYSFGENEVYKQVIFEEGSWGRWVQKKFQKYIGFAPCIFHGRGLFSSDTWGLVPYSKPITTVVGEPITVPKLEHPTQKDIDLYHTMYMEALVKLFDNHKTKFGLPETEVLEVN

[13] = Half life in Wistar Han rat at 1 mg/kg, iv; format: ADME, organism-based; details: in vivo
[14] = Inhibition of [14C]-glycerol incorporation into triglycerides in human primary hepatocytes; format: functional, cell-based; details: hepatocyte
[15] = In vivo inhibition of DGAT2 in high fat/high cholesterol diet fed Sprague-Dawley rat model assessed as reduction in hepatic triglyceride level at 90 mg/kg, po administered twice daily for 7 days starting from day 14 post diet and measured 2 hrs post last dose relative to control; format: functional; design: scale not given: the % may be the effect or the level left; details: time 7 day
[16] = Plasma clearance in cynomolgus monkey at 1 mg/kg, iv; format: ADME, organism-based, Macaca fascicularis
[17] = biological target: Voltage-gated inwardly rectifying potassium channel KCNH2 (Homo sapiens, UniProt Q12809); experiment: Inhibition of hERG by patch-clamp method; format: toxicity
physchem = details: buffer, pH 7.4
Description: Lipophilicity, logD of compound at pH 7.4 by shake flask method

Rattus norvegicus [18] = experiment: In vivo inhibition of DGAT2 in sucrose diet fed Sprague-Dawley rat assessed as reduction in triglyceride level administered as single oral dose and measured after 2 hrs; format: functional, organism-based; details: dose 0.3-90 mg/kg, DDE = dose-dependent effect
[19] = Toxicity in rat assessed as development-limiting toxicity; details: in vivo
CYP3A4/5 = CYP3A4/5 (Homo sapiens, UniProt P08684+P20815); experiment: Reversible inhibition of CYP3A4/5 in pooled human liver microsomes; format: ADME, Microsome
[20] = Inhibition of [14C]-glycerol incorporation into triglycerides in rat primary hepatocytes; format: functional, cell-based; details: hepatocyte
[21] = Drug metabolism in rat hepatocytes assessed as oxidation of THF ring mediated metabolite formation; format: ADME, cell-based, Hepatocyte
Cytochrome P450 2D6 = Cytochrome P450 2D6 (Homo sapiens, UniProt P10635); experiment: Reversible inhibition of CYP2D6 in pooled human liver microsomes using dextrorphan as substrate incubated for 14 mins in presence of NADPH by HPLC-MS/MS analysis; format: ADME, Microsome
[22] = Drug metabolism in cryopreserved human hepatocytes assessed as oxidation of THF ring mediated metabolite formation at 10 uM measured for 240 mins by HPLC-UV-MS analysis; format: ADME, cell-based, Hepatocyte; details: 4 h
Rattus norvegicus [23] = experiment: In vivo inhibition of DGAT2 in high fat/high cholesterol diet fed Sprague-Dawley rat model assessed as reduction in plasma triglyceride level administered orally twice daily for 7 days starting from day 14 post diet and measured 2 hrs post last dose; format: functional, organism-based; details: dose 0.3-90 mg/kg, route po, time 7.0 day, DDE = dose-dependent effect

Chain of Cytochrome P450 2D6 (P10635 whole entry): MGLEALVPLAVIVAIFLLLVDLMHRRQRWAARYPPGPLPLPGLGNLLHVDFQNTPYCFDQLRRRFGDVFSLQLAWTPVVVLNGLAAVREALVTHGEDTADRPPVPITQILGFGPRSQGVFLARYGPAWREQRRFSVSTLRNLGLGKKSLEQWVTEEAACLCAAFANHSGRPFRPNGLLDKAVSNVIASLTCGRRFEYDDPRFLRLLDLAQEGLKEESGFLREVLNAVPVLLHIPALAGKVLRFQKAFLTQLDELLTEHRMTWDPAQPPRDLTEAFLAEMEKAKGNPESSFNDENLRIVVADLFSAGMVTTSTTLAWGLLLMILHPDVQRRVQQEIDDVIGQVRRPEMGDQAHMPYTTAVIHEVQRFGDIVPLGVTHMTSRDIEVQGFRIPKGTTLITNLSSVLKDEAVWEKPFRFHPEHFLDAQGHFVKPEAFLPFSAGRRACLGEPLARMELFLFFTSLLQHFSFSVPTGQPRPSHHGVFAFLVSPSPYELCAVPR
Chain of Voltage-gated inwardly rectifying potassium channel KCNH2 (Q12809 whole entry): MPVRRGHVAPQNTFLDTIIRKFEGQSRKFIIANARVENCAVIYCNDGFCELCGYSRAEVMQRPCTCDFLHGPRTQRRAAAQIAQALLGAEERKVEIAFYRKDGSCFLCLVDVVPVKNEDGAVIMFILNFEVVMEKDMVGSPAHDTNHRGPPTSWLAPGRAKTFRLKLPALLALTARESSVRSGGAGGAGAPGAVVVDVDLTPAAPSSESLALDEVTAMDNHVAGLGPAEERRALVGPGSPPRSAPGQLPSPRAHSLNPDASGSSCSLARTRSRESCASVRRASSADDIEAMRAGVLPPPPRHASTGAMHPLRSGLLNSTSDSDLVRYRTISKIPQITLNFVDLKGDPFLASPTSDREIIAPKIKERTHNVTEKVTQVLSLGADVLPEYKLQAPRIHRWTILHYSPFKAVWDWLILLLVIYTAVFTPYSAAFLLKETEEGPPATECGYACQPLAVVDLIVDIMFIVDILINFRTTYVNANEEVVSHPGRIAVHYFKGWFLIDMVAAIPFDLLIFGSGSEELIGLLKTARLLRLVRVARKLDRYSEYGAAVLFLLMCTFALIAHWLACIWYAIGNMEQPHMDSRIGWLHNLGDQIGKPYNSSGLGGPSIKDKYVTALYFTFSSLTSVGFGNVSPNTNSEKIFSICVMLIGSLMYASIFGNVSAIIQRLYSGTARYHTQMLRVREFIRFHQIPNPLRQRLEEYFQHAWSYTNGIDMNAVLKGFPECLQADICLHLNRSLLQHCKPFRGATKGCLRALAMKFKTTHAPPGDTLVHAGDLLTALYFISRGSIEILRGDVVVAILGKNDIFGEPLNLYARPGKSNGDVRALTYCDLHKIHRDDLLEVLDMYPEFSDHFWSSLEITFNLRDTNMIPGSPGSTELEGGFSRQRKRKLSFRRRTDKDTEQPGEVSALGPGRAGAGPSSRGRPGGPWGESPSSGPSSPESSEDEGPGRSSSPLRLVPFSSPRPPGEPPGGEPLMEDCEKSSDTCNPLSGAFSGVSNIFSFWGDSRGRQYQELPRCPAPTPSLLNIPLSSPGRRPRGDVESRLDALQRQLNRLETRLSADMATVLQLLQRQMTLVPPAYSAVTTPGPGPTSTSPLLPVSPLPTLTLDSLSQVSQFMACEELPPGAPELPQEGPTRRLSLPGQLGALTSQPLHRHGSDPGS
Chain of Cytochrome P450 2C9 (P11712 whole entry): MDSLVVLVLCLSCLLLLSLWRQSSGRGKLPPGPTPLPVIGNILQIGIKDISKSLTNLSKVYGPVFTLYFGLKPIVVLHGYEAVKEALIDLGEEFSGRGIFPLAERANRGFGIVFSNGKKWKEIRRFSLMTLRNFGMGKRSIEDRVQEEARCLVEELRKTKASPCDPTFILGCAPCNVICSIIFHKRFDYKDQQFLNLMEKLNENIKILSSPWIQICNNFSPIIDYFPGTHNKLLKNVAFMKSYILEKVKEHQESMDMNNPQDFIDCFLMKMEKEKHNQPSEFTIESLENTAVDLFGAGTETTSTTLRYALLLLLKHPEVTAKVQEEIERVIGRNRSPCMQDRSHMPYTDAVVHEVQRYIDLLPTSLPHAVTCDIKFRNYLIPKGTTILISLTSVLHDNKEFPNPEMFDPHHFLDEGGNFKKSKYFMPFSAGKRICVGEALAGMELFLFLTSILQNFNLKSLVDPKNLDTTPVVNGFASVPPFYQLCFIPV

Drug metabolism [1]: Metabolite_Detected
Papp [2]: 19 ×10⁻⁶ cm/s
bioavailability [3]: 31%
half-life [4]: 1 h
Ratio [5]: 0.213
Vd [6]: 0.9 L/kg
half-life [7]: 1 h
pIC50 (Cytochrome P450 2B6): < 4.00
Drug metabolism [8]: Metabolite_Detected
Drug metabolism [9]: Metabolite_Detected
pIC50 (Cytochrome P450 2C9): 5.06
Drug metabolism [11]: Metabolite_Detected
pIC50 [12]: 6.08
half-life [13]: 0.3 h
clearance [16]: 10 mL/min/kg
logD (physchem): 1.9
pIC50 (CYP3A4/5): < 4.00
Drug metabolism [21]: Metabolite_Detected
pIC50 (Cytochrome P450 2D6): < 4.00
Drug metabolism [22]: Metabolite_Detected
SMILES: CCOc1cccnc1Oc1cncc(-c2ncc(C(=O)N[C@H]3CCOC3)cn2)c1 [PF-06865571]
Activity [10]: 70%
pIC50 [14]: 8.55
Activity [15]: 49%
pIC50 [17]: < 4.00
inhibition (Rattus norvegicus [18]): Dde
Activity [19]: Non-Toxic
pIC50 [20]: 8.22
Activity (Rattus norvegicus [23]): Dde
